The values below are quoted from earlier work in publication PMC2150373, “Phase I study of the mitomycin C analogue BMS-181174” (British Journal of Cancer, 1998).

The test system of the data set is patients. The note with it: clinical use of MMC, Rabadi et al, 1982, cited from earlier work.

With `CO[C@@]12[C@H](COC(N)=O)C3=C(C(=O)C(C)=C(N)C3=O)N1C[C@@H]1N[C@@H]12` [MMC, Mitomycin C], under “ref Martino et al, 1979, Ratanatharathom et al”, the “patients with a rise in serum creatinine” value is reported as 2%. Moreover, the dose-limiting toxicity entry (ref Carter and Crooke, 1979) is reported as “myelosuppression”.
